Test results as given in patent US20060222636A1, “Compositions, methods and kits relating to reprogramming adult differentiated cells and production of embryonic stem cell-like cells” (The Rockefeller University, priority 2003, published 2006).
Where two headings read alike, the source gives them in different places.

What was measured:
[1] = system: Erk1/2 and GSK-3β phosphorylation; assay type: cell-based, human; settings: for phosphorylation of Erk1/2 and GSK-3β in infected Schwann cells in presence of inhibitor: synchronized, continuous presence of inhibitor (15 μM); for M. leprae-induced Erk1/2 phosphorylation in presence of PKC inhibitor: 20 nM, serum starved 48 hours
Protocol: The cDNA produced was subsequently PCR amplified for 30 cycles using the various specific primers and fluorescent probes in a 384-well GeneAmp PCR system 9700 (Applied Biosystems, Foster City, Calif.). The level of each target gene was normalized to GAPDH gene as an endogenous reference. The data obtained were analyzed with the ABI PRISM 7900 HT Sequence detection system (Bulletin No. 2, Applied Biosystems). For control reactions the same master mixes were used but excluding the template RNA. Synchronization of Primary Schwann Cell and Kinase Inhibition Schwann cells that had been cultured for 30 days were synchronized for 48 hours by removing growth factor and serum. Schwann cells were then released to progress through the cell cycle by addition of 10% serum to the culture. Cytoplasmic and nuclear extracts obtained from these synchronized cells were prepared before (time 0) and after addition of serum at various time points (i.e., 9 to 18 hours after release). For Erk1/2 and pI3-k inhibition, pre-evaluated concentrations of specific MEK1/2 inhibitor UO126 (15 μM) and PD098059 (15 μM), pI3-k inhibitor LY294002 (15 μM) (Cell Signaling Technology) and SOS inhibitor (10 μg) (Upstate Biotechnology, Lake Placid, N.Y.) were added to the culture medium during synchronization and serum release, and cytoplasmic and nuclear extracts were prepared as described above and the proteins were immunoblotted using antibodies to phospho-Erk1/2, phospho-Akt, phosphoGSK-3β and cyclin-D1. For SOS inhibition studies, cell permeable SOS inhibitory peptide was added and the cells were treated as described above to analyze the effect of SOS inhibitor on M. leprae-induced activation of the above-referenced signaling molecules. None of the inhibitors examined produced any detectable apoptosis or non-apoptotic Schwann cell death under these conditions.
(§1) Human Schwann cells that had been cultured for 30 days with and without M. leprae were synchronized for 48 hours and then released to re-enter the cell cycle by addition of 10% serum. Cytoplasmic and nuclear extracts of these synchronized cells were prepared before and after addition of serum at different time points (9 to 18 hours after release). For Erk1/2 and PI3-k inhibition, pre-evaluated concentrations of specific MEK1/2 inhibitor UO126 (15 μM) and PD098059 (15 μM), pI3-k inhibitor LY294002 (15 μM) (Cell Signaling Technology), SOS inhibitor (10 μg) (Upstate Biotechnology, Lake Placid N.Y.) were used. For PKC and lck inhibition, pan-PKC inhibitor bisindolylmaleimide-I (20 nM) and Lck inhibitor PP2 (10 μM) (Calbiochem-Novabiochem Corporation, CA), respectively, were added to the culture medium during synchronization, and cytoplasmic and nuclear extracts were prepared as described above and were immunoblotted with antibodies to various phospho-specific signaling antibodies. None of the inhibitors produced any apoptosis or Schwann cell death under these conditions.

cyclin D1 = assay: Nuclear cyclin D1 immunoblot of synchronized Schwann cells; assay type: cell-based, human; settings: added to MEK and Pi3-kinase inhibitors
Protocol: Protein expression intensity was normalized using β-actin expression as an internal control marker and quantified with a densitometer (Alpha Innotech Corporation, San Leandro, Calif.) using the Alpha Imager 2200 v.5.5 software. For preparation of nuclear and cytoplasmic extracts, cells were incubated in a buffer containing 10 mM HEPES pH 7.5, 60 mM KCl, 1 mM EDTA, 0.1% NP-40, 1 mM DTT, 1 mM PMSF and protease inhibitors cocktail for 10 minutes on ice. Lysates were then centrifuged for 10 minutes and the supernatant, which comprised of cytoplasmic extract, was collected. The pellet was re-suspended in a buffer containing 50 mM Tris-HCl pH 7.5, 150 mM NaCl, 1% sodium lauryl sarcosine, 1% NP-40, 0.1% SDS, 1 mM EDTA and protease inhibitors cocktail. After brief sonication, the lysates were centrifuged for 10 minutes and the supernatant, consisting of nuclear extract, was collected. The protein content in both extracts was determined using the BCA method per manufacturer's instructions (Pierce Chemical, Rockford, Ill.).
The cDNA produced was subsequently PCR amplified for 30 cycles using the various specific primers and fluorescent probes in a 384-well GeneAmp PCR system 9700 (Applied Biosystems, Foster City, Calif.). […] The data obtained were analyzed with the ABI PRISM 7900 HT Sequence detection system (Bulletin No. 2, Applied Biosystems). […]

[2] = system: human primary Schwann cells; assay: Cell cycle FACS analysis (propidium iodide); assay type: cell-based
Protocol: Human primary Schwann cells, that had been cultured for 15 and 30 days with and without M. leprae were trypsinized and adjusted to equal cell number. For the experiments with kinase inhibitors, synchronized infected and control cells were treated with pre-evaluated concentrations of various inhibitors as described previously elsewhere herein, and with different combinations of inhibitors before being processed for cell cycle FACS (Lemoine and Marriott, 2001, J. Biol. Chem. 276:31851-31857). To assess the effect of Lck inhibitor on heregulin-induced cell cycle progression, synchronized Schwann cells were treated with heregulin for 30 minutes in the presence and absence of Lck inhibitor. Cells were then washed with PBS, fixed with 85% ethanol overnight at […] and suspended in 1 ml PBS containing 1% FBS, RNase A (250 μg/ml; Roche Molecular Biochemicals) and 100 μg/ml Propidium Iodide (Sigma) for 30 minutes at 37° C. Stained cells were washed twice with PBS and subjected to FACS analysis on a Becton Dickinson FACScan cytometer (Ruhl et al., 1999, J. Biol. Chem. 274: 34361-34368). The cell cycle profile was analyzed with CellQuest software (Becton & Dickinson).

Lck/Ser-158 = assay: Phospho-Lck/Ser-158 immunoblot; assay type: cell-based, human; settings: PKC inhibitor (10 μM)
Protocol: as §1, with “For PKC and lck inhibition, pan-PKC inhibitor bisindolylmaleimide-I (20 nM) and Lck inhibitor PP2 (10 μM) (Calbiochem-Novabiochem Corporation, CA), respectively, were added to the culture medium during synchronization, and cytoplasmic and nuclear extracts were prepared as described above and were immunoblotted with antibodies to various phospho-specific signaling antibodies.” left out
To examine if the addition of exogenous Heregulin-β1 can induce Lck/Ser-158 phosphorylation, human Schwann cells were serum-starved for 48 hours and then incubated with 10 nM […] for 30 minutes. Subsequently, total protein lysates were prepared and the phosphorylation state of Erk1/2, PKC-alpha-betaII/βII and Lck-Ser158 were examined using phospho-specific antibodies.

PKCα/βII = assay: Phospho-PKC isoform immunoblot; assay type: cell-based, human
Protocol: as §1
Although PKC is known to play a role in oligodendrocyte proliferation and differentiation (Bhat et al., 1992, J. Neurosci. Res. 32:340-349; Stariha and Kim, 2001, Microsc. Res. Tech. 52:680-688), much less is known about its function in Schwann cells. […]

human Schwann cells = assay: Apoptosis markers (TUNNEL assays, immunoblot of Caspase-3, Caspase-9, PARP); assay type: cell-based; settings: Camptothecin (1.5 μM)-treated Schwann cells, within 48 hours, positive control
Protocol: Total protein extracts were prepared from M. leprae infected and non-infected human Schwann cells in cell lysis and nuclear extraction buffer containing 62 mM Tris-HCl pH 6.8, 2% SDS, 10% Glycerol, 50 mM DTT and 0.2% protease inhibitors cocktail (Sigma, St. Louis, Mo.). Lysates were cleared by centrifugation and the protein content was determined according to the BCA method per manufacturer's instructions (PIERCE Chemical, Rockford Ill.). 40 μg of total cellular extracts were separated by sodium dodecyl sulfate-polyacrylamide gel electrophoresis (SDS-PAGE) and transferred to nitrocellulose membranes (Schleicher & Schuell, Keene, N.H.). Bound antibodies were detected using species-specific secondary antibodies coupled to HRP (Cell Signaling Technology, Beverly, Mass.) followed by enhanced chemiluminescence development (PIERCE Chemical, Rockford Ill.).
Total protein extracts were prepared by harvesting M. leprae infected human Schwann cells in cell lysis buffer and non-infected human Schwann cells in nuclear extracting buffer. Lysates were cleared by centrifugation and the protein content was determined according to the BCA method (PIERCE Chemical, Rockford Ill.). […] Protein expression intensity was normalized to β-actin expression and quantified with a densitometer (Alpha Innotech Corporation, San Leandro, Calif.) using the Alpha Imager 2200 v.5.5 software. […]

O=c1cc(N2CCOCC2)oc2c(-c3ccccc3)cccc12 [LY294002]
phosphorylation of Erk1/2 and GSK-3β in infected Schwann cells in presence of inhibitor [1]: not inhibited

CC(C)(C)n1nc(-c2ccc(Cl)cc2)c2c(N)ncnc21 [PP2]
nuclear cyclin D1 in presence of Lck inhibitor (cyclin D1; listed as Lck inhibitor): dramatically reduced | nuclear cyclin D1 in presence of Lck inhibitor (cyclin D1; listed as Lck-inhibitor): significant blockade | M. leprae-induced phosphorylation of Erk1/2 in presence of Lck inhibitor ([1]; 10 μM, with MEK1/2 and Pi3K inhibitors, 48 hours): significant reduction | net M. leprae-induced S-phase cell population in presence of Lck inhibitor ([2]; added to MEK and Pi3-kinase inhibitors): dramatically reduced | net S-phase population induced by exogenous heregulin-β1 in presence of Lck inhibitor ([2]; listed as Lck inhibitor): did not affect | net S-phase population induced by exogenous heregulin-β1 in presence of Lck inhibitor ([2]; listed as Lck-inhibitor): fails to respond

N#CC(=C(/N)Sc1ccccc1N)/C(C#N)=C(\N)Sc1ccccc1N [U0126]
phosphorylation of Erk1/2 and GSK-3β in infected Schwann cells in presence of inhibitor [1]: not inhibited

CN(C)CCCn1cc(C2=C(c3c[nH]c4ccccc34)C(=O)NC2=O)c2ccccc21 [bisindolylmaleimide-I]
phosphorylation at Lck/Ser-158 in presence of PKC inhibitor (Lck/Ser-158; listed as PKC inhibitor): completely abolished | phosphorylation at Lck/Ser-158 in presence of PKC inhibitor (Lck/Ser-158; listed as PKCI): abrogated | M. leprae-induced phospho-PKCα/βII in presence of pan-PKC inhibitor (PKCα/βII): markedly blocked | M. leprae-induced Erk1/2 phosphorylation in presence of PKC inhibitor ([1]; with MEK1/2 and Pi3K inhibitors): significantly blocked | M. leprae-induced Erk1/2 phosphorylation in presence of PKC inhibitor ([1]; with MEK1/2 and Pi3K inhibitors, listed as PKC inhibitor): dramatically down-regulated | apoptosis or cell death of treated cells ([1]; bisindolylmaleimide-I 20 nM): no apoptosis or cell death

CC[C@@]1(O)C(=O)OCc2c1cc1n(c2=O)Cc2cc3ccccc3nc2-1 [Camptothecin]
expression of apoptosis markers caspase 3, caspase 9, PARP (human Schwann cells): induced the expression of these apoptotic markers | expression of apoptosis markers caspase 3, caspase 9, PARP (human Schwann cells; listed as camptothecin): express all three apoptosis markers
